{
  "source": "patent US10906915B2",
  "about": "“Substituted pyrazoloazepin-4-ones and their use as phosphodiesterase inhibitors” (LEO Pharma A/S, priority 2016, dated 2021)",
  "data": [
    {"target": "human PDE4D catalytic domain (UniProt no. Q08499) (Homo sapiens (Human), UniProt Q08499)", "sequence (Q08499 380-740 limits assumed)": "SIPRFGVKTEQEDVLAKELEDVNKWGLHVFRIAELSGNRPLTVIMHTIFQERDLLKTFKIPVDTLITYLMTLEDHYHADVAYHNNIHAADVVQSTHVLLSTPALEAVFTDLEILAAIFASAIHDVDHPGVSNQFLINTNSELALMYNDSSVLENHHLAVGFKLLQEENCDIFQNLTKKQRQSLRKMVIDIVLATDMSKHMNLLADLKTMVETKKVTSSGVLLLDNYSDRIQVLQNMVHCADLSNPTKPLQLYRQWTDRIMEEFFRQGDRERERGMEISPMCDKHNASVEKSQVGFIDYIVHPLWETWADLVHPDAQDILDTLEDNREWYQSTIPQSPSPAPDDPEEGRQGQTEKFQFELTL", "experiment": "PDE4 assay (TR-FRET, FAM-cAMP cleavage)", "format": "biochemical", "conditions": "human PDE4D catalytic domain; molar concentration giving 50% inhibition of substrate cleavage; read-out: PDE4 IC50 range", "how_it_was_run": "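PDE4D catalytic domain ([…]) was incubated with unlabelled cAMP plus FAM-cAMP and titrated compound, stopped with binding buffer of metal-ion nanoparticles and Tb donor. AMP generation read by TR-FRET; IC50 as 50% inhibition of cleavage versus controls, reported as nM ranges.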", "units": {"IC50": "µM"}, "values": [
      {"smiles": "CCc1nn(C[C@@H](C)COC(=O)c2cc(F)ccc2Cl)c2c1C(=O)NCC1(CCOCC1)C2", "note": "[Example 200, [(2R)-3-(3-ethyl-4-oxo-spiro[6,8-dihydro-5H-pyrazolo[4,3-c]azepine-7,4′-tetrahydropyran]-1-yl)-2-methyl-propyl] 2-chloro-5-fluoro-benzoate]", "IC50": "< 0.1"},
      {"smiles": "CCc1nn(C[C@@H](C)COC(=O)c2cccc(F)c2Cl)c2c1C(=O)NCC1(CCOCC1)C2", "note": "[Example 201, [(2R)-3-(3-ethyl-4-oxo-spiro[6,8-dihydro-5H-pyrazolo[4,3-c]azepine-7,4′-tetrahydropyran]-1-yl)-2-methyl-propyl] 2-chloro-3-fluoro-benzoate]", "IC50": "< 0.1"},
      {"smiles": "CCc1nn(C[C@@H](C)COC(=O)c2cc(Cl)ccc2F)c2c1C(=O)NCC1(CCOCC1)C2", "note": "[Example 202, [(2R)-3-(3-ethyl-4-oxo-spiro[6,8-dihydro-5H-pyrazolo[4,3-c]azepine-7,4′-tetrahydropyran]-1-yl)-2-methyl-propyl] 5-chloro-2-fluoro-benzoate]", "IC50": "< 0.1"},
      {"smiles": "CCc1nn(C[C@@H](C)COC(=O)c2c(F)cccc2Cl)c2c1C(=O)NCC1(CCOCC1)C2", "note": "[Example 203, [(2R)-3-(3-ethyl-4-oxo-spiro[6,8-dihydro-5H-pyrazolo[4,3-c]azepine-7,4′-tetrahydropyran]-1-yl)-2-methyl-propyl] 2-chloro-6-fluoro-benzoate]", "IC50": "< 0.1"},
      {"smiles": "CCc1nn(C[C@@H](C)COC(=O)c2ccc(F)c(Cl)c2)c2c1C(=O)NCC1(CCOCC1)C2", "note": "[Example 204, [(2R)-3-(3-ethyl-4-oxo-spiro[6,8-dihydro-5H-pyrazolo[4,3-c]azepine-7,4′-tetrahydropyran]-1-yl)-2-methyl-propyl] 3-chloro-4-fluoro-benzoate]", "IC50": "< 0.1"},
      {"smiles": "CCc1nn(C[C@@H](C)COC(=O)c2ccc(Cl)cc2F)c2c1C(=O)NCC1(CCOCC1)C2", "note": "[Example 205, [(2R)-3-(3-ethyl-4-oxo-spiro[6,8-dihydro-5H-pyrazolo[4,3-c]azepine-7,4′-tetrahydropyran]-1-yl)-2-methyl-propyl] 4-chloro-2-fluoro-benzoate]", "IC50": "< 0.1"},
      {"smiles": "CCc1nn(C[C@@H](C)COC(=O)c2ccc(OC)c(Cl)c2)c2c1C(=O)NCC1(CCOCC1)C2", "note": "[Example 206, [(2R)-3-(3-ethyl-4-oxo-spiro[6,8-dihydro-5H-pyrazolo[4,3-c]azepine-7,4′-tetrahydropyran]-1-yl)-2-methyl-propyl] 3-chloro-4-methoxy-benzoate]", "IC50": "< 0.1"},
      {"smiles": "CCc1nn(C[C@@H](C)COC(=O)c2cccc(OC)c2Cl)c2c1C(=O)NCC1(CCOCC1)C2", "note": "[Example 207, [(2R)-3-(3-ethyl-4-oxo-spiro[6,8-dihydro-5H-pyrazolo[4,3-c]azepine-7,4′-tetrahydropyran]-1-yl)-2-methyl-propyl] 2-chloro-3-methoxy-benzoate]", "IC50": "< 0.1"},
      {"smiles": "CCc1nn(C[C@@H](C)COC(=O)c2ccc(Cl)c(OC)c2)c2c1C(=O)NCC1(CCOCC1)C2", "note": "[Example 208, [(2R)-3-(3-ethyl-4-oxo-spiro[6,8-dihydro-5H-pyrazolo[4,3-c]azepine-7,4′-tetrahydropyran]-1-yl)-2-methyl-propyl] 4-chloro-3-methoxy-benzoate]", "IC50": "< 0.1"},
      {"smiles": "CCc1nn(C[C@@H](C)COC(=O)c2cccc(Cl)c2OC)c2c1C(=O)NCC1(CCOCC1)C2", "note": "[Example 209, [(2R)-3-(3-ethyl-4-oxo-spiro[6,8-dihydro-5H-pyrazolo[4,3-c]azepine-7,4′-tetrahydropyran]-1-yl)-2-methyl-propyl] 3-chloro-2-methoxy-benzoate]", "IC50": "< 0.1"},
      {"smiles": "CCc1nn(C[C@@H](C)COC(=O)c2cc(Cl)ccc2OC)c2c1C(=O)NCC1(CCOCC1)C2", "note": "[Example 210, [(2R)-3-(3-ethyl-4-oxo-spiro[6,8-dihydro-5H-pyrazolo[4,3-c]azepine-7,4′-tetrahydropyran]-1-yl)-2-methyl-propyl] 5-chloro-2-methoxy-benzoate]", "IC50": "< 0.1"},
      {"smiles": "CCc1nn(C[C@@H](C)COC(=O)c2ccc(Cl)cc2OC)c2c1C(=O)NCC1(CCOCC1)C2", "note": "[Example 211, [(2R)-3-(3-ethyl-4-oxo-spiro[6,8-dihydro-5H-pyrazolo[4,3-c]azepine-7,4′-tetrahydropyran]-1-yl)-2-methyl-propyl] 4-chloro-2-methoxy-benzoate]", "IC50": "< 0.1"},
      {"smiles": "CCc1nn(C[C@@H](C)COC(=O)c2ccc(C(F)(F)F)cc2)c2c1C(=O)NCC1(CCOCC1)C2", "note": "[Example 212, [(2R)-3-(3-ethyl-4-oxo-spiro[6,8-dihydro-5H-pyrazolo[4,3-c]azepine-7,4′-tetrahydropyran]-1-yl)-2-methyl-propyl] 4-(trifluoromethyl)benzoate]", "IC50": "< 0.1"},
      {"smiles": "CCc1nn(C[C@@H](C)COC(=O)c2cccc(S(C)(=O)=O)c2)c2c1C(=O)NCC1(CCOCC1)C2", "note": "[Example 213, [(2R)-3-(3-ethyl-4-oxo-spiro[6,8-dihydro-5H-pyrazolo[4,3-c]azepine-7,4′-tetrahydropyran]-1-yl)-2-methyl-propyl] 3-methylsulfonylbenzoate]", "IC50": "< 0.1"},
      {"smiles": "CCc1nn(C[C@@H](C)COC(=O)c2ccccc2S(C)(=O)=O)c2c1C(=O)NCC1(CCOCC1)C2", "note": "[Example 214, [(2R)-3-(3-ethyl-4-oxo-spiro[6,8-dihydro-5H-pyrazolo[4,3-c]azepine-7,4′-tetrahydropyran]-1-yl)-2-methyl-propyl] 2-methylsulfonylbenzoate]", "IC50": "< 0.1"},
      {"smiles": "CCc1nn(C[C@@H](C)COC(=O)c2ccc(S(N)(=O)=O)cc2)c2c1C(=O)NCC1(CCOCC1)C2", "note": "[Example 215, [(2R)-3-(3-ethyl-4-oxo-spiro[6,8-dihydro-5H-pyrazolo[4,3-c]azepine-7,4′-tetrahydropyran]-1-yl)-2-methyl-propyl] 4-sulfamoylbenzoate]", "IC50": "< 0.1"},
      {"smiles": "CCc1nn(C[C@@H](C)COC(=O)c2cccc(C(F)(F)F)c2C)c2c1C(=O)NCC1(CCOCC1)C2", "note": "[Example 217, [(2R)-3-(3-ethyl-4-oxo-spiro[6,8-dihydro-5H-pyrazolo[4,3-c]azepine-7,4′-tetrahydropyran]-1-yl)-2-methyl-propyl] 2-methyl-3-(trifluoromethyl)benzoate]", "IC50": "< 0.1"},
      {"smiles": "CCc1nn(C[C@@H](C)COC(=O)c2cc(C(F)(F)F)ccc2C)c2c1C(=O)NCC1(CCOCC1)C2", "note": "[Example 218, [(2R)-3-(3-ethyl-4-oxo-spiro[6,8-dihydro-5H-pyrazolo[4,3-c]azepine-7,4′-tetrahydropyran]-1-yl)-2-methyl-propyl] 2-methyl-5-(trifluoromethyl)benzoate]", "IC50": "< 0.1"},
      {"smiles": "CCc1nn(C[C@@H](C)COC(=O)c2ccc(C(F)(F)F)c(F)c2)c2c1C(=O)NCC1(CCOCC1)C2", "note": "[Example 219, [(2R)-3-(3-ethyl-4-oxo-spiro[6,8-dihydro-5H-pyrazolo[4,3-c]azepine-7,4′-tetrahydropyran]-1-yl)-2-methyl-propyl] 3-fluoro-4-(trifluoromethyl)benzoate]", "IC50": "< 0.1"},
      {"smiles": "CCc1nn(C[C@@H](C)COC(=O)c2cc(C(F)(F)F)ccc2F)c2c1C(=O)NCC1(CCOCC1)C2", "note": "[Example 220, [(2R)-3-(3-ethyl-4-oxo-spiro[6,8-dihydro-5H-pyrazolo[4,3-c]azepine-7,4′-tetrahydropyran]-1-yl)-2-methyl-propyl] 2-fluoro-5-(trifluoromethyl)benzoate]", "IC50": "< 0.1"}
    ]}
  ]
}
